From US10780101B2, “Amide derivatives of squalamine for the treatment of infections” (VIRBAC, priority 2016, dated 2020)
Values after ≈ are worked out from the molar mass of the structure shown. Marks after values point to notes of the source that are not given here.

Key:
[1] = tested on: P. aeruginosa Animal (1051575); assay: MIC determination, P. aeruginosa animal (1051575); format: cell-based; conditions: Pseudomonas aeruginosa; Gram-negative; Mueller-Hinton medium, 24 h at 37° C.
Method in brief: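 Broth microdilution in Mueller-Hinton medium; compounds from 5 mg/mL stock in DMSO/methanol (50/50), twofold serial dilutions, inoculum adjusted to OD 0.01. Plates incubated 24 h at 37 °C, humid atmosphere; OD read at 620 nm to derive MIC, duplicates.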

P. aeruginosa (1051575) [2] = assay: Potentiation of doxycycline activity (combination MIC); format: cell-based, Pseudomonas aeruginosa; conditions: for MIC - P. aeruginosa (1051575): content of compound of formula (I) to restore the doxycycline activity (at 2 μg/mL): in presence of doxycycline 2 μg/mL, 24 hours at 37° C.; for synergism when administered with doxycycline: doxycycline at 2 μg/mL
P. aeruginosa (1051575) [3] = assay: Potentiation of erythromycin activity (combination MIC); format: cell-based, Pseudomonas aeruginosa; conditions: erythromycin 2 μg/mL; concentration of compound required to restore antibiotic activity
Method in brief: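 Broth microdilution with wells seeded at OD 0.01 (about 5×10^6 bacteria/well). The test compound was serially diluted against each antibiotic held at a final 2 μg/mL. After 24 h at 37 °C in humid air, live bacteria were stained pink with nitro tetrazolium iodide; the value is the compound concentration restoring antibiotic activity.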

P. aeruginosa (1051575) [4] = assay: Potentiation of chloramphenicol activity (combination MIC); format: cell-based, Pseudomonas aeruginosa; conditions: concentration of compound required to restore antibiotic activity

Row | SMILES | MIC [1] | MIC - P. aeruginosa (1051575): content of compound of formula (I) to restore the doxycycline activity (at 2 μg/mL) (P. aeruginosa (1051575) [2]) | MIC P. aeruginosa (1051575) compound + erythromycin (P. aeruginosa (1051575) [3]) | MIC P. aeruginosa (1051575) compound + chloramphenicol (P. aeruginosa (1051575) [4]; chloramphenicol 2 μg/mL) | MIC P. aeruginosa (1051575) compound + chloramphenicol (P. aeruginosa (1051575) [4]; chloramphenicol 4 μg/mL) | synergism when administered with doxycycline (P. aeruginosa (1051575) [2])
1 | CC(C)NC(=O)CC[C@@H](C)[C@H]1CCC2C3C(C[C@H](O)[C@@]21C)[C@@]1(C)CC[C@H](NCCCNCCCN)CC1C[C@H]3O (stereo partly drawn) [(5), 3β-norspermidino-N-isopropylcholamide] | 64 µg/mL (≈ 114 µM) | 1 µg/mL | 32* μg/mL | 4 µg/mL | 2 µg/mL | 
2 | CC(C)NC(=O)CC[C@@H](C)[C@H]1CCC2C3C(CC[C@@]21C)[C@@]1(C)CC[C@H](NCCCNCCCNCCCN)CC1C[C@H]3O (stereo partly drawn) [(7), 3β-norspermino-N-isopropylchenodeoxycholamide] | 15 µg/mL (≈ 24.8 µM) | 1 µg/mL | 15 µg/mL |  | 2 µg/mL | 
3 | CC(C)NC(=O)CC[C@@H](C)[C@H]1CCC2C3C(CC[C@@]21C)[C@@]1(C)CC[C@H](NCCCNCCCN)CC1C[C@H]3O (stereo partly drawn) [(8), 3β-norspermidino-N-isopropylchenodeoxycholamide] | 27 µg/mL (≈ 49.4 µM) | 2 µg/mL | 27 µg/mL |  | 2 µg/mL | 
4 | CC(C)NC(=O)CC[C@@H](C)[C@H]1CCC2C3C(CC[C@@]21C)[C@@]1(C)CC[C@H](NCCCNCCCN)CC1C[C@@H]3O (stereo partly drawn) [(15), 3β-norspermidino-N-isopropylursodeoxycholamide] | 112 µg/mL (≈ 205 µM) | 1 µg/mL | 55 µg/mL | 7 µg/mL | 2 µg/mL | 
5 | CC(C)NC(=O)CC[C@@H](C)[C@H]1CCC2C3CCC4C[C@@H](NCCCN(C)CCCN)CC[C@]4(C)C3C[C@H](O)[C@@]21C (some centres unmarked) [(25)] | 28 µg/mL (≈ 49.9 µM) | 2 µg/mL | 28 µg/mL |  | 2 µg/mL | noteworthy synergism
6 | CC(C)NC(=O)CC[C@@H](C)[C@H]1CCC2C3C(CC[C@@]21C)[C@@]1(C)CC[C@H](NCCCN(C)CCCN)CC1C[C@H]3O (stereo partly drawn) [(27), 3β-(bis(3-aminopropyl)methylamine)-N-isopropylchenodeoxycholamide] | 128 µg/mL (≈ 228 µM) | 2 µg/mL | 28 µg/mL | 4 µg/mL | 1 µg/mL | 
7 | CC(C)NC(=O)CC[C@@H](C)[C@H]1CCC2C3CCC4C[C@@H](NCCCNCCCN)CC[C@]4(C)C3C[C@H](O)[C@@]21C (stereo partly drawn) [Compound (2), 3β-norspermidino-N-isopropyldeoxycholamide] | 14 µg/mL (≈ 25.6 µM) | 0.9 µg/mL | 3* μg/mL | 0.9 µg/mL | 0.9 µg/mL | noteworthy synergism
8 | CC(C)NC(=O)CC[C@@H](C)[C@H]1CCC2C3C(CC[C@@]21C)[C@@]1(C)CC[C@H](NCCCNCCCCNCCCN)CC1C[C@@H]3O (stereo partly drawn) [Compound (35), 3β-spermino-N-isopropylursodeoxycholamide] | 64 µg/mL (≈ 104 µM) | 2 µg/mL | 32 µg/mL |  | 2 µg/mL | 
